These results are taken from US4680382A, “Analogues of actinomycin D” (priority 1986, dated 1987).

pIC50: −log10 of the molar value.

Series [1] relates to P388 cells. In words: Inhibition of DNA synthesis (methyl-[3H]thymidine incorporation) in P388 cells. Format: cell-based, murine. The note with it: 50% reduction in 1 hr of methyl-[3H]thymidine incorporation, read-out: IC50 DNA synth. The procedure:
(§1) Experiments for inhibition of nucleic acid synthesis in tumor cells in vitro were carried out with P388 tumor cells, details of which were reported by Sengupta et al, J. Med. Chem., 18, 1175 (1975). […] AMD-OZLs inhibit either process with equal activity and with the potency of its metabolite 7-hydroxy-AMD.
^c IC50 (DNA) = concentration of inhibitor in μM required to
cause 50% reduction (in 1 hr) in methyl[^3 H]thymidine incorporation
into acid precipitable material with use of P388 cells.

Series [2] concerns P388 cells. The experiment in a line: Inhibition of RNA synthesis (2-[14C]uridine incorporation) in P388 cells. The format is cell-based, murine. The note with it: for pIC50: 50% reduction in 1 hr of 2-[14C]uridine incorporation, read-out: IC50 RNA synth; for IC50 DNA/IC50 RNA: ratio. The procedure: as §1
^b IC50 (RNA) = concentration of inhibitor in μM required to
cause 50% reduction (in 1 hr) in 2[^14 C]uridine incorporation into
acid precipitable material with use of P388 cells.

In series [3] the test system is CCRF-CEM human lymphoblastic leukemic cells. The experiment in a line: In vitro cytotoxicity against CCRF-CEM cells. The note with it: 48 hr. Format: cell-based. How it is done:
^a Human lymphoblastic leukemic cells.
The analogues were tested for their cytotoxicity against tumor cells (time, 48 hr). […] This may be associated with the initial microsomal transformation of the "reverse" analogues to "symmetrical" analogue and/or other alternate bioactive forms (e.g., free-radicals, O2^-), followed by deactivation via formation of conjugates and facile elimination of these from the host. The "reverse" analogues show reduced toxicity in vivo and also the tritiated "reverse" 7a is metabolized in vitro.

The test system of series [4] is P388 lymphocytic leukemia. In words: In vivo antitumor activity against P388 leukemia. The note with it: for surv (surviving mice/total mice at 60 days) / % ILS / MST (range): P388, at optimal dose; for % ILS: 100(T/C - 1); for MST (range): control 11.0 (9-12); for optimal dose: P388, ip, days 1, 5 and 9, optimal nontoxic dose. Further details: species or system BDF1 mice. How it is done: The analogues were tested for their antitumor activities in P388 lymphocytic leukemia in male BDF1 mice. The tumor was implanted intraperitoneally (ip) with 10^6 cells. The drugs were also administered ip once daily on days 1, 5 and 9, beginning 1 day after tumor transplantation. Analogues were tested over a range of doses, but only the optimal nontoxic doses are listed.
^a 10^6 P388 cells implanted ip on day 0 into groups of eight
BDF1 male mice. Drugs administered ip. MST (range), median survival
time in days (range of individual animal deaths); % ILS, percent increase
in life span, calculated 100(T/C - 1), where T and C are median survival
times of treated and control animals; surv, number of surviving mice/tota

Series [5] has as its target T1, NADPH cytochrome P-450 reductase (rat liver microsomes) (Rattus norvegicus, UniProt P00388).
T1 sequence (P00388 1-678): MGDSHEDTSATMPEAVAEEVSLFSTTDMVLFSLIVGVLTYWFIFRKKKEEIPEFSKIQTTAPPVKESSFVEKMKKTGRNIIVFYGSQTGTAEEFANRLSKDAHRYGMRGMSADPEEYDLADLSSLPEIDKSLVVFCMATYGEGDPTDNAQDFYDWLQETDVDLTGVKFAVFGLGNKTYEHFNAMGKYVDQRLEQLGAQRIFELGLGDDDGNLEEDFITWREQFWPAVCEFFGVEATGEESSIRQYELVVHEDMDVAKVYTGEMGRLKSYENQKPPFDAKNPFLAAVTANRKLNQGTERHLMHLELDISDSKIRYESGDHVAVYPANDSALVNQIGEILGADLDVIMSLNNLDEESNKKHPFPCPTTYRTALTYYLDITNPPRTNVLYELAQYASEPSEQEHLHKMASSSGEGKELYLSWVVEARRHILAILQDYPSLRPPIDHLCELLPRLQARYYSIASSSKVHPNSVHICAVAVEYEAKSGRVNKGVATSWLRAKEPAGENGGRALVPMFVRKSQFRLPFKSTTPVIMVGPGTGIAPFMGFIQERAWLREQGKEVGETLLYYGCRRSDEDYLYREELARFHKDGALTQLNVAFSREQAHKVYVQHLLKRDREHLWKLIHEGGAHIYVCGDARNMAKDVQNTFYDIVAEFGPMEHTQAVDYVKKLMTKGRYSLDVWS
The experiment in a line: Stimulation of NADPH oxidation in rat hepatic microsomal incubations.

Series [6] relates to B16 melanoma. In words: In vivo antitumor activity against B16 melanoma. The note with it: for % ILS / surv (survivors on day 65/total injected) / MST (range): at optimal dose; for MST (range): control 29 (20-48); for optimal dose: ip, days 1, 5, 9. Also on record: species or system BDF1 mice. How it is done: AMD-OZL analogues 9a and 10a were about as active as AMD and 7-hydroxy-AMD. The potencies of these analogues are reduced in comparison to that of AMD; their optimal doses were higher than that of AMD.
^a 0.2 mL of 1:5 (weight/volume) brei of B16 melanoma implanted
ip on day 0 in groups of nine BDF1 mice. Drugs administered ip.
^b MST (range) median survival time in days (range of individual
^c % ILS (surv), percent increase in lifespan (survivors on day

Series [7] can be described thus: Maximum tolerated dose (LD10) in tumor-free BDF1 male mice. Format: in vivo. As to conditions: for MTD (maximum tolerated dose): lethal dose for 10% normal BDF1 male mice, 21 days (LD10), ip days 1, 5 and 9. The procedure: (§2) These analogues were also tested in tumor-free BDF1 male mice for determination of their MTD values (Table VIII). The animals (18-22 g) were given a broad range of doses of drugs in 5% dimethyl sulfoxide-saline on days 1, 5 and 9. Drugs were administered ip and the maximum tolerated doses of agents which caused death in only 10% of the tested animals in 21 days (i.e., LD10) were recorded as MTD. […] However, the MED values of 7-hydroxy-AMD and its precursor AMD-OZL 10a are high and are seven to tenfold of the MED values of 4a and 8a. On the basis of these MED values, the therapeutic indices of 8a and 4a are 70 and 96. The therapeutic index of 2a is 13, of 10a 10, and of AMD only 4.
^c MTD (maximum tolerated dose) is the lethal dose
(milligram/kilogram) for 10% normal BDF1 male mice (18-22 g); animal
calculated from a plot of logdose vs. percent mortality.

The test system of series [8] is P388 Leukemia. The experiment in a line: Minimum effective dose and therapeutic index vs. P388 leukemia. Format: in vivo. As to conditions: dose giving 45% increase in life span in P388 tumor bearing mice; ip days 1, 5 and 9. The procedure: as §2
^a Drugs administered ip once on days 1, 5 and 9 starting 1 day after
tumor implantation. Determinations were made from analysis of plotted
^b MED (minimum effective dose) is the dose (milligram/kilogram)
providing an increase in life span of 45% over control in P388 tumor

The subject of series [9] is rat hepatic microsomes. In words: Stimulation of adrenochrome formation (superoxide generation) in rat hepatic microsomal incubations.
Series [10] relates to P388/S. The experiment in a line: In vivo activity against P388/S (adriamycin sensitive) leukemia, Table VII. Further details: species or system BDF1 mice. The procedure: (§3) ^a Male BDF1 mice inoculated ip: 10^6 cells inoculum, day 0.
(§4) Drugs administered in 10% dimethyl sulfoxidesaline on days 1, 5 and 9. %
(§5) ILS = percent increase in life span. Fractions in parentheses = tumorfree
(§6) survivors/total on day 60. P388/S (adriamycin sensitive) and P388/ADR
(§7) (adriamycin resistant) tumors were evaluated in the same experiment with […]

In series [11] the test system is P388/ADR. In words: In vivo activity against P388/adriamycin-resistant leukemia. Also on record: species or system BDF1 mice. How it is done:
as §3, §4, §5, §6, §7

As to `Cc1c2oc3c(C)c(O)cc(C(=O)N[C@@H]4C(=O)N[C@H](C(C)C)C(=O)N5CCC[C@H]5C(=O)N(C)CC(=O)N(C)[C@@H](C(C)C)C(=O)O[C@@H]4C)c3nc-2c(C(=O)N[C@@H]2C(=O)N[C@H](C(C)C)C(=O)N3CCC[C@H]3C(=O)N(C)CC(=O)N(C)[C@@H](C(C)C)C(=O)O[C@@H]2C)c(N)c1=O` [2a, 7-hydroxyactinomycin D, reference compound], the negative logarithm of the IC50 (pIC50) in [1] was 5.29. In addition, in series [2], the pIC50 was 5.29 and the “IC50 DNA/IC50 RNA” value worked out at 1.00. In series [3], the “in vitro (CCRF-CEM) ID50” value is listed as 1000 nM. Moreover, in series [4], the “surv (surviving mice/total mice at 60 days)” value is reported as 0/8, the “% ILS” value amounted to 136%, the “MST (range)” value is recorded as 26.0 (19-39) days and the optimal dose is 1200.0 μg/kg per inj. Further, in series [5] (340 nm, 37° C., phenobarbital induced microsomes, mean ± standard error of triplicate, basal 9.11 ± 0.30), the NADPH oxid was 29.9 ± 1.91 nmol min^-1 (mg of protein)^-1. Further, the “percentage stimulation of NADPH oxidation over basal rate” value in series [5] ((drug-stimulated rate - basal rate)/basal rate × 100) is listed as 228%. Also, in series [6], the “% ILS” value was found to be 52%, the “surv (survivors on day 65/total injected)” value is 1/9, the “MST (range)” value is on record as 44 (39-53) days and the optimal dose is on record as 1200 μg/kg per inj. Besides, the “MTD (maximum tolerated dose)” value in series [7] is on record as 3.50 milligram/kilogram. The “MTD as fold of the MTD of AMD” value in [7] (tumor-free BDF1 male mice) is recorded as “about 14 fold”. Besides, in [8], the “MED (minimum effective dose)” value is recorded as 0.275 milligram/kilogram. In series [9] (480 nm, 37° C., no SOD, no more than 100 μM drug, basal 2.11 ± 0.11), the adrenochrome formation is listed as 7.29 ± 0.79 nmol min^-1 (mg of protein)^-1. Moreover, the “adrenochrome formation in presence of SOD” value in series [9] (SOD (superoxide dismutase) 5 μg/mL added) was “inhibited”. The “percentage stimulation of adrenochrome formation over basal rate” value in series [9] (no SOD) is listed as 245%.

As for `Cc1c2oc3c(C)c4oc(-c5ccccc5)nc4c(C(=O)NC4C(=O)NC(C(C)C)C(=O)N5CCCC5C(=O)N(C)CC(=O)N(C)C(C(C)C)C(=O)OC4C)c3nc-2c(C(=O)NC2C(=O)NC(C(C)C)C(=O)N3CCCC3C(=O)N(C)CC(=O)N(C)C(C(C)C)C(=O)OC2C)cc1=O` (stereo not drawn) [10a, 2-Phenyl-AMD--OZL], the pIC50 in series [1] was 5.24. In series [2], the negative logarithm of the IC50 (pIC50) is 5.49 and the “IC50 DNA/IC50 RNA” value amounted to 1.78. Besides, in series [3], the “in vitro (CCRF-CEM) ID50” value came to 500 nM. Further, in [4], the “surv (surviving mice/total mice at 60 days)” value is 2/8, the “% ILS” value was determined as 186%, the “MST (range)” value is reported as 31.5 (29-57) days and the optimal dose is given as 1000.0 μg/kg per inj. Besides, in series [10] (at optimal dose), the “P388/S % ILS” value worked out at 186% and the “P388/S tumor-free survivors/total on day 60” value is 2/8. In addition, the P388/S optimal dose in series [10] (ip, days 1, 5 and 9) amounted to 1.0 mg/kg. For the same molecule, in series [6], the “% ILS” value was determined as 55%, the “surv (survivors on day 65/total injected)” value is 2/9, the “MST (range)” value is 45 (33-56) days and the optimal dose is 900 μg/kg per inj. In series [7], the “MTD (maximum tolerated dose)” value is recorded as 2.0 milligram/kilogram. Further, in series [8], the “MED (minimum effective dose)” value stood at 0.20 milligram/kilogram. For the same molecule, in [11] (at optimal dose), the “P388/ADR % ILS” value is given as 88%. The P388/ADR optimal dose in series [11] (ip, days 1, 5 and 9) is recorded as 1.2 mg/kg.
